# Counter-ions that a name gives are not always drawn.
# Columns and labels:
# [1] = target: human mPGES-1 (Homo sapiens (Human), UniProt O14684); assay: mPGES-1 inhibiting activity (microsome fractions, PGE2 by HTRF); assay type: biochemical; settings: microsomes from CHO-K1 cells transfected with human mPGES-1; PGH2 1 μM, 4° C., 60 seconds; read-out: mPGES-1 Inhibition IC50
# In short: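 PGE2 formation read by HTRF after 60 s at 4 °C with 1 μM PGH2 substrate, following 20 min compound preincubation (1% DMSO) with human mPGES-1 microsomes from transfected CHO-K1 cells. Buffer: potassium phosphate, reduced glutathione, pH 7.4; IC50 from activity relative to enzyme-free blank.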
# [2] = tested on: A549 cells; assay: Inhibition of PGE2 production in A549 cell (IL-1β stimulated); assay type: cell-based, human; settings: Homo sapiens, A549, 24 h, IL-1β 5 ng/well, PGE2 in culture medium
# In short: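 A549 cells preincubated 60 min with compound in RPMI/3% FBS (final DMSO 0.10), then stimulated with IL-1β (5 ng/well) for 24 h at 37 °C. PGE2 measured by HTRF and PGF2α by EIA in medium; IC50 from inhibition relative to stimulated minus unstimulated production.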
# Chain of human mPGES-1 (O14684 whole entry): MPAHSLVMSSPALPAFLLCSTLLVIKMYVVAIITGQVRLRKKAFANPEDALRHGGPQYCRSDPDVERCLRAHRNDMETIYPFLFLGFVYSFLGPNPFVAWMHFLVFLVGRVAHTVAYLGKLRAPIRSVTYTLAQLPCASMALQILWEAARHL
IC50 [1],IC50 [2],SMILES
0.0316 µM,0.854 µM,"Cc1c(Cl)cccc1NC(=O)c1cc(NC(=O)c2ccccc2C(F)(F)F)cc2[nH]c(NCCN3CCCC3)nc12 [Example 152, N-(3-Chloro-2-methylphenyl)-2-{[2-(pyrrolidin-1-yl)ethyl]amino}-6-({[2-(trifluoromethyl)phenyl]carbonyl}amino)-1H-benz imidazole-4-carboxamide hydrochloride]"
0.0223 µM,0.618 µM,"Cc1c(Cl)cccc1NC(=O)c1cc(NC(=O)c2ccccc2C(F)(F)F)cc2[nH]c(NCCCN(C)C)nc12 [Example 153, N-(3-Chloro-2-methylphenyl)-2-{[3-(dimethylamino)propyl]amino}-6-({[2-(trifluoromethyl)phenyl]carbonyl}amino)-1H-benzimidazole-4-carboxamide hydrochloride]"
0.02 µM,0.0644 µM,"Cc1c(Cl)cccc1NC(=O)c1cc(NC(=O)c2ccccc2C(F)(F)F)cc2[nH]c(NCC(C)(C)CN(C)C)nc12 [Example 154, N-(3-Chloro-2-methylphenyl)-2-{[3-(dimethylamino)-2,2-dimethylpropyl]amino}-6-({[2-(trifluoromethyl)phenyl]carbonyl}amino)-1H-benzimidazole-4-carboxamide hydrochloride]"
0.101 µM,0.209 µM,"Cc1c(Cl)cccc1NC(=O)c1cc(NC(=O)c2ccccc2C(F)(F)F)cc2[nH]c(NCCN(C(C)C)C(C)C)nc12 [Example 155, N-(3-Chloro-2-methylphenyl)-2-{[2-(dipropan-2-ylamino)ethyl]amino}-6-({[2-(trifluoromethyl)phenyl]carbonyl}amino)-1H-benzimidazole-4-carboxamide hydrochloride]"
0.0016 µM,0.0246 µM,"Cc1c(Cl)cccc1NC(=O)c1cc(NC(=O)c2ccccc2C(F)(F)F)cc2[nH]c(N3CCOCC3)nc12 [Example 156, N-(3-Chloro-2-methylphenyl)-2-(morpholin-4-yl)-6-({[2-(trifluoromethyl)phenyl]carbonyl}amino)-1H-benzimidazole-4-carboxamide]"
0.0039 µM,10.9 µM,"Cc1c(Cl)cccc1NC(=O)c1cc(NC(=O)c2ccccc2C(F)(F)F)cc2[nH]c(N)nc12 [Example 157, 2-Amino-N-(3-chloro-2-methylphenyl)-6-({[2-(trifluoromethyl)phenyl]carbonyl}amino)-1H-benzimidazole-4-carboxamide hydrochloride]"
0.0085 µM,0.0822 µM,"Cc1c(Cl)cccc1NC(=O)c1cc(NC(=O)c2ccccc2C(F)(F)F)cc2[nH]c(NCC(C)(C)CO)nc12 [Example 158, N-(3-Chloro-2-methylphenyl)-2-[(3-hydroxy-2,2-dimethylpropyl)amino]-6-({[2-(trifluoromethyl)phenyl]carbonyl}amino)-1H-benzimidazole-4-carboxamide hydrochloride]"
0.0076 µM,0.0716 µM,"Cc1c(Cl)cccc1NC(=O)c1cc(NC(=O)c2ccccc2C(F)(F)F)cc2[nH]c(NCC(=O)OC(C)(C)C)nc12 [Example 160, tert-Butyl N-{4-[(3-chloro-2-methylphenyl)carbamoyl]-6-({[2-(trifluoromethyl)phenyl]carbonyl}amino)-1H-benzimidazol-2-yl}glycinate hydrochloride]"
0.0038 µM,> 10 µM,"Cc1c(Cl)cccc1NC(=O)c1cc(NC(=O)c2ccccc2C(F)(F)F)cc2[nH]c(NCC(=O)O)nc12 [Example 161, N-{4-[(3-Chloro-2-methylphenyl)carbamoyl]-6-({[2-(trifluoromethyl)phenyl]carbonyl}amino)-1H-benzimidazol-2-yl}glycine hydrochloride]"
0.0238 µM,0.0522 µM,"Cc1c(Cl)cccc1NC(=O)c1cc(NC(=O)c2ccccc2C(F)(F)F)cc2c1nc(NCC(C)(C)CO)n2C [Example 162, N-(3-Chloro-2-methylphenyl)-2-[(3-hydroxy-2,2-dimethylpropyl)amino]-1-methyl-6-({[2-(trifluoromethyl)phenyl]carbonyl}amino)-1H-benzimidazole-4-carboxamide hydrochloride]"
0.0059 µM,0.0232 µM,"COCC(C)(C)CNc1nc2c(C(=O)Nc3cccc(Cl)c3C)cc(NC(=O)c3ccccc3C(F)(F)F)cc2[nH]1 [Example 163, N-(3-Chloro-2-methylphenyl)-2-[(3-methoxy-2,2-dimethylpropyl)amino]-6-({[2-(trifluoromethyl)phenyl]carbonyl}amino)-1H-benzimidazole-4-carboxamide hydrochloride]"
0.0003 µM,0.0133 µM,"Cc1c(Cl)cccc1NC(=O)c1cc(NC(=O)c2ccccc2C(F)(F)F)cc2[nH]c(N3CCCC3)nc12 [Example 164, N-(3-Chloro-2-methylphenyl)-2-(pyrrolidin-1-yl)-6-({[2-(trifluoromethyl)phenyl]carbonyl}amino)-1H-benzimidazole-4-carb oxamide hydrochloride]"
0.0013 µM,0.0074 µM,"Cc1c(Cl)cccc1NC(=O)c1cc(NC(=O)c2ccccc2C(F)(F)F)cc2[nH]c(N3CCC3)nc12 [Example 165, 2-(Azetidin-1-yl)-N-(3-chloro-2-methylphenyl)-6-({[2-(trifluoromethyl)phenyl]carbonyl}amino)-1H-benzimidazole-4-carboxamide hydrochloride]"
0.0032 µM,0.029 µM,"COC1CN(c2nc3c(C(=O)Nc4cccc(Cl)c4C)cc(NC(=O)c4ccccc4C(F)(F)F)cc3[nH]2)C1 [Example 166, N-(3-Chloro-2-methylphenyl)-2-(3-methoxyazetidin-1-yl)-6-({[2-(trifluoromethyl)phenyl]carbonyl}amino)-1H-benzimidazole-4-carboxamide hydrochloride]"
0.001 µM,0.217 µM,"Cc1c(Cl)cccc1NC(=O)c1cc(NC(=O)c2ccccc2C(F)(F)F)cc2[nH]c(NCC(C)(C)O)nc12 [Example 167, N-(3-Chloro-2-methylphenyl)-2-[(2-hydroxy-2-methylpropyl)amino]-6-({[2-(trifluoromethyl)phenyl]carbonyl}amino)-1H-benz imidazole-4-carboxamide hydrochloride]"
0.0032 µM,0.0239 µM,"Cc1c(Cl)cccc1NC(=O)c1cc(NC(=O)c2ccccc2C(F)(F)F)cc2[nH]c(NC[C@@H]3CCCO3)nc12 [Example 168, N-(3-Chloro-2-methylphenyl)-2-{[(2S)-tetrahydrofuran-2-ylmethyl]amino}-6-({[2-(trifluoromethyl)phenyl]carbonyl}amino)-1H-benzimidazole-4-carboxamide hydrochloride]"
0.0024 µM,0.0886 µM,"Cc1c(Cl)cccc1NC(=O)c1cc(NC(=O)c2ccccc2C(F)(F)F)cc2[nH]c(NC[C@H]3CCCO3)nc12 [Example 169, N-(3-Chloro-2-methylphenyl)-2-{[(2R)-tetrahydrofuran-2-ylmethyl]amino}-6-({[2-(trifluoromethyl)phenyl]carbonyl}amino)-1H-benzimidazole-4-carboxamide hydrochloride]"
0.0032 µM,0.0178 µM,"Cc1c(Cl)cccc1NC(=O)c1cc(NC(=O)c2ccccc2C(F)(F)F)cc2[nH]c(N[C@H](CO)C(C)C)nc12 [Example 170, N-(3-Chloro-2-methylphenyl)-2-{[(2S)-1-hydroxy-3-methylbutan-2-yl]amino}-6-({[2-(trifluoromethyl)phenyl]carbonyl}amino-1H-benzimidazole-4-carboxamide hydrochloride]"
